Results: EP2678315B1, “(Pyridin-4-yl)benzylamides as allosteric modulators of alpha 7 nAChR” (Janssen Pharmaceutica, N.V., priority 2011, dated 2012)
Where two headings read alike, the source gives them in different places.

Molecular target: T1, human alpha 7-wt nAChR (Homo sapiens, UniProt P36544)
T1 construct: expressed in transfected cells
Test: Ca2+ flux imaging (FDSS) (protocol B)
Assay type: cell-based
Conditions: for EC50: read-out: pEC50 (converted); for Emax: read-out: % Efficacy
Method: Example D.1 : Ca^2+ flux imaging (FDSS) (protocol B)
• a) Assay buffer Hanks buffered saline solution (HBSS, Invitrogen, Belgium), supplemented with 10 mM HEPES (Invitrogen, Belgium), CaCl2 to a final concentration of 5 mM, 0.1 % Bovine serum albumin (Sigma-Aldrich NV, Belgium). • b) Calcium-sensitive dye - Fluo-4AM Fluo-4AM (Molecular Probes, USA) was dissolved in DMSO containing 10% Pluronic acid (Molecular Probes, USA) to give a stock solution which was diluted in assay buffer supplemented with 5 mM probenicid (Sigma, Aldrich NV, Belgium) to give a final concentration of 2 µM • c) 384-well plates Black-sided, transparent bottomed 384 well plates coated with poly-D-lysine, PDL pre-coated (Coming, Incorporated, USA) • d) Calcium flux measurement A Functional drug screening system (FDSS, Hamamatsu) was used to measure intracellular free-calcium flux signals.
Monolayers of human alpha 7-wt nAChR-expressing cells were grown in black-sided, transparent bottomed 384 well plates coated with PDL for 24 hours prior to loading with a fluorescent calcium indicator, fluo-4AM for up to 120 minutes.
PAM activity was detected in real time by applying the compounds to be tested to the loaded cells along with an alpha 7 nicotinic receptor agonist during constant monitoring of cellular fluorescence in a FDSS. Compounds giving peak fluorescent responses greater than the response due to agonist alone, were consideted to be alpha 7 nAChR PAMs. The alpha 7 nicotinic receptor agonist was choline, applied at a sub-maximal concentration of 100 µM. In a further setting of the present invention the compounds were applied prior to the alpha 7 nicotinic receptor agonist, in a particular 10 minutes prior to the agonist.
A control response to choline was calculated on each plate from the difference in peak in fluorescence in wells receiving either choline or assay buffer alone. Compounds of the present invention were tested at a concentration range from 0.01 µM to 30 µM. Compounds were considered to have an interesting activity when they potentiated the choline signal at least with 200 % when tested at a concentration of 30 µM (the efficacy of 100 µM choline was defined as 100% in the absence of a PAM). An EC50 (or pEC50) was determined as a concentration relating to half the maximal effect, when a clear sigmoidal curve with top plateau was obtained.

T1 sequence (P36544 23-502): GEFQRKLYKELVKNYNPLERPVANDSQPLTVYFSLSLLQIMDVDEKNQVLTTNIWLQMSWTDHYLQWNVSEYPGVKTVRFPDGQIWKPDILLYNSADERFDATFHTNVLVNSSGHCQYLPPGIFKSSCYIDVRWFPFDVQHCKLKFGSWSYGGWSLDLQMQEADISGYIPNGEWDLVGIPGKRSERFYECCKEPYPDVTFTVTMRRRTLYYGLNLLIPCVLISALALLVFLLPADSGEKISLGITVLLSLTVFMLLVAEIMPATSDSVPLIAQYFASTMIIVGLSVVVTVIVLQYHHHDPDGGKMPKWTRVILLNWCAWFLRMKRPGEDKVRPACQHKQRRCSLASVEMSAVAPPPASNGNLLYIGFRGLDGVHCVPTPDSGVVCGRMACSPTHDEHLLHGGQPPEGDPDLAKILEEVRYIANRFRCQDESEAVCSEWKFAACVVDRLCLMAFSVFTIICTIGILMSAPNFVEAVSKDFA

SMILES | EC50 (Ca2+ assay as described in D.1) | Emax (Ca2+ assay as described in D.1) | Emax
Cc1cc(-c2ccc(N3C[C@@H](C)O[C@@H](C)C3)cc2CNC(=O)C(C)C2CC2)cc(C)n1 (relative stereo) [Compound 8] | 24 nM |  | 353%
Cc1cc(-c2ccc(C3C[C@@H](C)O[C@@H](C)C3)c(F)c2CNC(=O)CC(C)C)cc(C)n1 (relative stereo) [Compound 55] | 229 nM |  | 890%
Cc1cc(-c2ccc(N3C[C@@H](C)O[C@@H](C)C3)cc2CNC(=O)C(C)C)ccn1 [Compound 9] | 240 nM |  | 
Cc1cc(-c2ccc(N3C[C@@H](C)O[C@@H](C)C3)cc2CNC(=O)c2cc(C)on2)ccn1 [Compound 10] | 1230 nM |  | 
Cc1cc(-c2ccc(N3C[C@@H](C)O[C@@H](C)C3)cc2CNC(=O)c2ccc(F)cc2C)ccn1 [Compound 11] | 9.33 nM |  | 912%
Cc1cc(-c2ccc(N3C[C@@H](C)O[C@@H](C)C3)cc2CNC(=O)c2conc2C)ccn1 [Compound 12] | 166 nM |  | 562%
Cc1cc(-c2ccc(N3C[C@@H](C)O[C@@H](C)C3)cc2CNC(=O)CC2CC2)ccn1 [Compound 13] | 282 nM |  | 915%
CC(C)C(=O)NCc1cc(N2C[C@@H](C)O[C@@H](C)C2)ccc1-c1ccncc1 [Compound 15] | 1100 nM |  | 
Cc1nocc1C(=O)NCc1cc(N2C[C@@H](C)O[C@@H](C)C2)ccc1-c1ccncc1 [Compound 17] | 1660 nM |  | 681%
Cc1cc(-c2ccc(N3C[C@H](C)C[C@H](C)C3)cc2CNC(=O)c2cc(C)on2)cc(C)n1 [Compound 18] | 288 nM |  | 136%
Cc1cc(-c2ccc(N3C[C@H](C(F)(F)F)C[C@H](C(F)(F)F)C3)cc2CNC(=O)c2conc2C)cc(C)n1 [Compound 19] | 50.1 nM |  | 266%
Cc1cc(-c2ccc(N3C[C@H](C(F)(F)F)C[C@H](C(F)(F)F)C3)cc2CNC(=O)c2ccc(F)cc2C)cc(C)n1 [Compound 20] | 11 nM |  | 466%
Cc1cc(-c2ccc(N3C[C@H](C(F)(F)F)C[C@H](C(F)(F)F)C3)cc2CNC(=O)c2cc(C)on2)cc(C)n1 [Compound 21] | 126 nM |  | 541%
Cc1cc(-c2ccc(N3C[C@H](C(F)(F)F)C[C@H](C(F)(F)F)C3)cc2CNC(=O)CC2CC2)cc(C)n1 [Compound 22] | 16.2 nM |  | 458%
Cc1cc(-c2ccc(N3C[C@H](C(F)(F)F)C[C@H](C(F)(F)F)C3)cc2CNC(=O)C(C)C)cc(C)n1 [Compound 23] | 15.8 nM |  | 322%
Cc1cc(-c2ccc(N3CCOCC3)cc2CNC(=O)CC2CC2)cc(C)n1 [Compound 24] | 1780 nM |  | 466%
Cc1cc(-c2ccc(N3CCOCC3)cc2CNC(=O)c2cc(C)on2)cc(C)n1 [Compound 25] | 6170 nM |  | 654%
Cc1cc(-c2ccc(N3CCOCC3)cc2CNC(=O)c2conc2C)cc(C)n1 [Compound 26] | 457 nM |  | 202%
Cc1cc(-c2ccc(N3CCOCC3)cc2CNC(=O)c2ccc(F)cc2C)cc(C)n1 [Compound 27] | 57.5 nM |  | 419%
Cc1cc(-c2ccc(N3CCOCC3)cc2CNC(=O)CC(F)(F)F)cc(C)n1 [Compound 28] |  | 111% | 
Cc1cc(-c2ccc(N3CCOCC3)cc2CNC(=O)C(C)C)cc(C)n1 [Compound 29] | 813 nM |  | 256%
Cc1cc(-c2ccc(N3CCOCC3)cc2CNC(=O)C2CC2)cc(C)n1 [Compound 30] |  | 260% | 
Cc1cc(-c2ccc(N3CCOCC3)cc2CNC(=O)c2ccc(F)cc2C)ccn1 [Compound 31] | 479 nM |  | 576%
Cc1cc(-c2ccc(N3CCCC(C(F)(F)F)C3)cc2CNC(=O)c2conc2C)cc(C)n1 (centres unmarked) [Compound 32] |  | 72.4% | 
Cc1cc(-c2ccc(N3CCCC(C(F)(F)F)C3)cc2CNC(=O)c2ccc(F)cc2C)cc(C)n1 (centres unmarked) [Compound 33] | 245 nM |  | 278%
Cc1cc(-c2ccc(N3CCCC(C(F)(F)F)C3)cc2CNC(=O)c2cc(C)on2)cc(C)n1 (centres unmarked) [Compound 34] | 537 nM |  | 405%
Cc1cc(-c2ccc(N3CCCC(C(F)(F)F)C3)cc2CNC(=O)CC2CC2)cc(C)n1 (centres unmarked) [Compound 35] | 26.3 nM |  | 389%
Cc1cc(-c2ccc(N3CCCC(C(F)(F)F)C3)cc2CNC(=O)C(C)C)cc(C)n1 (centres unmarked) [Compound 36] |  | 131% | 

More lines, main results first:

EC50 (Ca2+ assay as described in D.1) | Emax (Ca2+ assay as described in D.1) | SMILES | Emax
479 nM |  | Cc1cc(-c2ccc(N3C[C@@H](C)O[C@@H](C)C3)c(F)c2CNC(=O)C(C)C2CC2)cc(C)n1 (mixture of isomers) [Compound 50] | 
457 nM |  | Cc1cc(-c2ccc(C3C[C@@H](C)O[C@@H](C)C3)c(F)c2CNC(=O)CC2CC2)cc(C)n1 (relative stereo) [Compound 53] | 
1580 nM |  | Cc1cc(-c2ccc(C3C[C@@H](C)O[C@@H](C)C3)c(F)c2CNC(=O)C2CC2)cc(C)n1 (relative stereo) [Compound 54] | 
178 nM |  | Cc1cc(-c2ccc(C3C[C@@H](C)O[C@@H](C)C3)c(F)c2CNC(=O)CC2CCC2)cc(C)n1 (relative stereo) [Compound 60] | 
871 nM |  | Cc1cc(-c2ccc(C3C[C@@H](C)O[C@@H](C)C3)c(F)c2CNC(=O)C(C)C)cc(C)n1 (relative stereo) [Compound 61] | 
708 nM |  | Cc1cc(-c2ccc(C3C[C@@H](C)O[C@@H](C)C3)c(F)c2CNC(=O)c2cc(C)on2)cc(C)n1 (relative stereo) [Compound 62] | 
1070 nM |  | Cc1cc(-c2ccc(C3C[C@@H](C)O[C@@H](C)C3)c(F)c2CNC(=O)c2conc2C)cc(C)n1 (relative stereo) [Compound 63] | 
9.33 nM |  | Cc1cc(-c2ccc(N3C[C@@H](C)O[C@@H](C)C3)cc2CNC(=O)c2ccc(F)cc2C)cc(C)n1 [Compound 5] | 
 | 287% | Cc1cc(-c2ccc(N3C[C@@H](C)O[C@@H](C)C3)cc2CNC(=O)CC(F)(F)F)cc(C)n1 [Compound 7] | 
589 nM |  | Cc1cc(-c2ccc(N3C[C@@H](C)O[C@@H](C)C3)cc2CNC(=O)C2CC2)ccn1 [Compound 14] | 
295 nM |  | Cc1cc(-c2ccc(N3C[C@@H](C)O[C@@H](C)C3)c(F)c2CNC(=O)CC2CC2)cc(C)n1 [Compound 37] | 
977 nM |  | Cc1cc(-c2ccc(N3C[C@@H](C)O[C@@H](C)C3)c(F)c2CNC(=O)c2cc(C)on2)cc(C)n1 [Compound 38] | 
832 nM |  | Cc1cc(-c2ccc(N3C[C@@H](C)O[C@@H](C)C3)c(F)c2CNC(=O)c2conc2C)cc(C)n1 [Compound 39] | 
41.7 nM |  | Cc1cc(-c2ccc(N3C[C@@H](C)O[C@@H](C)C3)c(F)c2CNC(=O)c2ccc(F)cc2C)cc(C)n1 [Compound 40] | 
575 nM |  | Cc1cc(-c2ccc(N3C[C@@H](C)O[C@@H](C)C3)c(F)c2CNC(=O)C(C)C)cc(C)n1 [Compound 41] | 
1170 nM |  | Cc1cc(-c2ccc(N3C[C@@H](C)O[C@@H](C)C3)c(F)c2CNC(=O)C2CC2)cc(C)n1 [Compound 42] | 
120 nM |  | Cc1cc(-c2ccc(N3C[C@@H](C)O[C@@H](C)C3)c(F)c2CNC(=O)CC(C)C)cc(C)n1 [Compound 43] | 
316 nM |  | Cc1cc(-c2ccc(N3C[C@@H](C)O[C@@H](C)C3)c(F)c2CNC(=O)CCCC(F)(F)F)cc(C)n1 [Compound 44] | 
138 nM |  | Cc1cc(-c2ccc(N3C[C@@H](C)O[C@@H](C)C3)c(F)c2CNC(=O)CC2CCC2)cc(C)n1 [Compound 45] | 
91.2 nM |  | Cc1cc(-c2ccc(N3C[C@@H](C)O[C@@H](C)C3)c(F)c2CNC(=O)C2CCCCC2)cc(C)n1 [Compound 46] | 
24 nM |  | Cc1cc(-c2ccc(N3C[C@@H](C)O[C@@H](C)C3)c(F)c2CNC(=O)CC(C)(C)C)cc(C)n1 [Compound 48] | 
148 nM |  | Cc1cc(-c2ccc(N3C[C@@H](C)O[C@@H](C)C3)c(F)c2CNC(=O)c2cnc(Cl)cc2Cl)cc(C)n1 [Compound 51] | 
479 nM |  | Cc1cc(-c2ccc(N3C[C@@H](C)O[C@@H](C)C3)c(F)c2CNC(=O)c2cccc(Cl)c2F)cc(C)n1 [Compound 52] | 
155 nM |  | Cc1cc(-c2ccc(N3CCO[C@@H](C(F)(F)F)C3)c(F)c2CNC(=O)C(C)C)cc(C)n1 [Compound 56] | 
234 nM |  | Cc1cc(-c2ccc(N3CCO[C@@H](C(F)(F)F)C3)c(F)c2CNC(=O)c2cc(C)on2)cc(C)n1 [Compound 57] | 
269 nM |  | Cc1cc(-c2ccc(N3CCO[C@@H](C(F)(F)F)C3)c(F)c2CNC(=O)c2conc2C)cc(C)n1 [Compound 58] | 
83.2 nM |  | Cc1cc(-c2ccc(N3CCO[C@@H](C(F)(F)F)C3)c(F)c2CNC(=O)CC2CC2)cc(C)n1 [Compound 59] | 
309 nM |  | Cc1cc(-c2ccc(N3CCO[C@H](C(F)(F)F)C3)c(F)c2CNC(=O)CC2CC2)cc(C)n1 [Compound 64] | 
